Reference: patent US5607937A, “Piperazides of substituted phenylalanine derivatives as thrombin inhibitors” (priority 1993, dated 1997)
pKi: −log10 of the molar value. Read-outs that look alike come from different tables or passages of the source.

Legend:
[1] = biological target: factor Xa (Bos taurus, UniProt P00743); experiment: inhibition of factor Xa, dissociation constant Ki; type: biochemical; conditions: Table 1
Method: (§1) The biological activity of the compounds of the present invention was determined in vitro as well as in vivo.

[2] = biological target: T1, thrombin (Bos taurus, UniProt P00735)
[3] = system: coagulation in human plasma; experiment: thrombin time (TT) in human plasma
[4] = biological target: tPA (Homo sapiens, UniProt P00750); experiment: inhibition of tPA, dissociation constant Ki
[5] = biological target: plasmin (Homo sapiens, UniProt P00747); experiment: inhibition of plasmin, dissociation constant Ki; conditions: read-out: Ki, Plasmin; Table 1
[6] = system: coagulation in human plasma; experiment: prothrombin time (PT, Quick value) in human plasma
[7] = biological target: T2, factor XIIa (Homo sapiens, UniProt P00748); experiment: inhibition of factor XIIa, dissociation constant Ki; conditions: Table 1
T2 sequence (P00748 373-615 limits assumed): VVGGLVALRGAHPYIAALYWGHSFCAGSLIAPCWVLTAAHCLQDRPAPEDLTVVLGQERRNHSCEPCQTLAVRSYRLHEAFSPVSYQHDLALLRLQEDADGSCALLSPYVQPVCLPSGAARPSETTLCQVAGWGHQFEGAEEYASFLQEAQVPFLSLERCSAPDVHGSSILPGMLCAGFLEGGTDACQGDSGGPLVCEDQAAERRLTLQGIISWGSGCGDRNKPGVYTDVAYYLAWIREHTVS

[8] = biological target: plasma kallikrein (Homo sapiens, UniProt P03952); experiment: inhibition of plasma kallikrein, dissociation constant Ki
[9] = biological target: glandular kallikrein (Sus scrofa, UniProt P00752); experiment: inhibition of glandular kallikrein, dissociation constant Ki
[10] = system: coagulation in human plasma; experiment: activated partial thromboplastin time (aPTT) in human plasma
[11] = biological target: T3, trypsin (Bos taurus, UniProt P00760); experiment: inhibition of trypsin, dissociation constant Ki; type: biochemical; design: thrombin and the related enzymes trypsin, plasmin, factor Xa, factor XIIa; conditions: Table 1; read-out: Ki, Trypsin
T3 sequence (P00760 24-246): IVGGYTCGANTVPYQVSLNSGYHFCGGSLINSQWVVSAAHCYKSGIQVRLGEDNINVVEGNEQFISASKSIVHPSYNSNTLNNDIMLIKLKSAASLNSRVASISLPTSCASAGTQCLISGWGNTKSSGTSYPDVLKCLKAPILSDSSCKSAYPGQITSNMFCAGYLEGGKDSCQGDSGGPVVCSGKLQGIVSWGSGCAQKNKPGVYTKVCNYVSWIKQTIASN
Method: as §1

[12] = biological target: T3, trypsin; conditions: literature; cited from earlier work
[13] = plasma concentration in rats after intravenous administration; type: in vivo; conditions: rat; for concentration at 0.25 h: 15 min; for concentration at 0.5 h: 30 min; for concentration at 1 h: 60 min; for elimination in words: i.v.
Method: A physiological NaCl solution of the substance to be tested was submitted to high pressure liquid chromatography (HPLC) in order to determine its characteristic substance-specific retention time with the chosen test conditions.
The substance to be tested was diluted in vitro in rat plasma. This solution was also submitted to HPLC to see whether the characteristic peak of the substance once again appeared at the substance-specific retention time.
Blood samples were taken at time intervals of 15 minutes, from which plasma samples were prepared by centrifugation; those samples were also submitted to HPLC to see whether the characteristic peak of the substance appeared again at the substance-specific retention time.
After administration, blood samples were taken from the test animals at time intervals from 2 to maximally 360 minutes and the blood level of the compounds to be tested was determined by HPLC.

[14] = plasma concentration in rats after oral administration; type: in vivo; conditions: rat, oral
[15] = plasma concentration in rats after rectal administration; type: in vivo; conditions: rat; for concentration at 0.5 h: 30 min; for concentration at 1 h: 60 min; for concentration at 2 h: 120 min; for concentration at 3 h: 180 min; for concentration at 4 h: 240 min
[16] = in vivo; conditions: rat
[17] = system: coagulation in rat plasma; experiment: thrombin time in rat plasma after rectal application; type: in vivo; conditions: rectal 5 mg/kg
Method: (§2) After rectal administration of the compounds to be tested, the anticoagulant effect was determined in the plasma of experimental animals.

[18] = system: coagulation in rat plasma; experiment: aPTT in rat plasma after rectal application; type: in vivo; conditions: rectal 5 mg/kg
Method: as §2

[19] = concentration in rat plasma in the anticoagulant study after rectal application; type: in vivo; conditions: rectal 5 mg/kg; for concentration at 0.5 h / concentration at 1 h / concentration at 2 h / concentration at 3 h: plasma; for concentration at 0.5 h: 30 min; for concentration at 1 h: 60 min; for concentration at 2 h: 120 min; for concentration at 3 h: 180 min; for Concentration in plasma: 0 min
[20] = biological target: T1, thrombin; experiment: biochemical
[21] = read-out: Ki, Thrombin, Table 1
[22] = read-out: Thrombin inhibition Ki, Table 7
[23] = read-out: Ki, Plasma kallikr., Table 1
[24] = read-out: Ki, Gland. kallikr., Table 1
[25] = plasma, intraduodenal 100 mg/kg, 30 min

Sequence of tPA (P00750 36-562): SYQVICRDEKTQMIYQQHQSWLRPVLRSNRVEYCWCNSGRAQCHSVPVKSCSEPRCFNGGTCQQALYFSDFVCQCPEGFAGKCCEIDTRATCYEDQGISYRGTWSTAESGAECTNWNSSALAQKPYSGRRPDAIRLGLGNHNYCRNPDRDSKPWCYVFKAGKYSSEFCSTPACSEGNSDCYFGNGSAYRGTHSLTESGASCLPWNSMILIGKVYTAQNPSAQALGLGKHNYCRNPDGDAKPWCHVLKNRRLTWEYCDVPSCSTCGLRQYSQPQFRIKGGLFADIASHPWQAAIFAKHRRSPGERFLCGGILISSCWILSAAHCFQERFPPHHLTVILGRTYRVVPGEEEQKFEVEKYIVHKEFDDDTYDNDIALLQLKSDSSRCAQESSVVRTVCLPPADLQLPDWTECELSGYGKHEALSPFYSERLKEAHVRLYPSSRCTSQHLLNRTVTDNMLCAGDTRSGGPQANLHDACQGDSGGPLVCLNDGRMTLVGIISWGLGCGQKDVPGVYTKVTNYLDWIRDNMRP
Sequence of plasma kallikrein (P03952 391-638 limits assumed, species assumed): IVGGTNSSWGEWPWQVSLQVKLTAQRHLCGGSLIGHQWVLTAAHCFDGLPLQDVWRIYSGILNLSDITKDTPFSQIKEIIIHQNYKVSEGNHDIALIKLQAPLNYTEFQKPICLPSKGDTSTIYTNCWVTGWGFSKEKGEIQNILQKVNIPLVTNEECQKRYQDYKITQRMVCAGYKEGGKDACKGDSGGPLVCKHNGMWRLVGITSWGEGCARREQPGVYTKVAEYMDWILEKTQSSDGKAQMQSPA
Sequence of plasma kallikrein (P03952 20-390 partner limits assumed, species assumed): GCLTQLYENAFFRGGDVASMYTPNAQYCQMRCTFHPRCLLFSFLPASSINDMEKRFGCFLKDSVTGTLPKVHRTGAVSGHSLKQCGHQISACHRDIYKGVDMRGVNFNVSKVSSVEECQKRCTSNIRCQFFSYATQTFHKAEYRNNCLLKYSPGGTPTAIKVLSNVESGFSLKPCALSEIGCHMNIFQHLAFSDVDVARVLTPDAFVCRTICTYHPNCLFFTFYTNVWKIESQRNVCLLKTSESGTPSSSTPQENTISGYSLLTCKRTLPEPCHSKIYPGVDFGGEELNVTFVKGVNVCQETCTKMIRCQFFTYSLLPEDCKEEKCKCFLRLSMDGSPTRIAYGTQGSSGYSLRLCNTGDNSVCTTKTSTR
Sequence of glandular kallikrein (P00752 8-246): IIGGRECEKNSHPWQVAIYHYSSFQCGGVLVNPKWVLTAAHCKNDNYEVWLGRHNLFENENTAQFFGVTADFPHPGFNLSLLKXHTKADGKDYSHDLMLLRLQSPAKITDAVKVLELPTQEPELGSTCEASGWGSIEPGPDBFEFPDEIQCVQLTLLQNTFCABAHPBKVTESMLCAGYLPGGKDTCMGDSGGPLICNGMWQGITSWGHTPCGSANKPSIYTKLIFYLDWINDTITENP
Sequence of factor Xa (P00743 234-492 limits assumed): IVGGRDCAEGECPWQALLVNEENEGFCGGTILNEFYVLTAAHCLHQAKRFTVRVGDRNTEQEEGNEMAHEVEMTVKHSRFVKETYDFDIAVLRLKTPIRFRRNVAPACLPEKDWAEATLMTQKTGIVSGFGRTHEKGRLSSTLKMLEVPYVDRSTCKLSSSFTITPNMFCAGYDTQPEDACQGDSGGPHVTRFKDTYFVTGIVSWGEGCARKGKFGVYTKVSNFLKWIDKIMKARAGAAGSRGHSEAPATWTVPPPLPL
Sequence of factor Xa (P00743 41-180 partner limits assumed): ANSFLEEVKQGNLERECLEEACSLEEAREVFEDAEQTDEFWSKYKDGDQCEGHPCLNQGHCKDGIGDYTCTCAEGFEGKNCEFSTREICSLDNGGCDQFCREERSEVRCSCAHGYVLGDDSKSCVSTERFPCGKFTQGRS
Sequence of plasmin (P00747 581-810 limits assumed): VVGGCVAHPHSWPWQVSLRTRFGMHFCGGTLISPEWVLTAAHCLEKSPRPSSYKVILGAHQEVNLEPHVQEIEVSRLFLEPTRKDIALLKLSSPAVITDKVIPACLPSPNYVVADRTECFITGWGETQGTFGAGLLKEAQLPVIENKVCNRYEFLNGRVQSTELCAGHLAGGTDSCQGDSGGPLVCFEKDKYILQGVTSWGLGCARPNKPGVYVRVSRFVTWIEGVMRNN
Sequence of plasmin (P00747 97-580 partner limits assumed): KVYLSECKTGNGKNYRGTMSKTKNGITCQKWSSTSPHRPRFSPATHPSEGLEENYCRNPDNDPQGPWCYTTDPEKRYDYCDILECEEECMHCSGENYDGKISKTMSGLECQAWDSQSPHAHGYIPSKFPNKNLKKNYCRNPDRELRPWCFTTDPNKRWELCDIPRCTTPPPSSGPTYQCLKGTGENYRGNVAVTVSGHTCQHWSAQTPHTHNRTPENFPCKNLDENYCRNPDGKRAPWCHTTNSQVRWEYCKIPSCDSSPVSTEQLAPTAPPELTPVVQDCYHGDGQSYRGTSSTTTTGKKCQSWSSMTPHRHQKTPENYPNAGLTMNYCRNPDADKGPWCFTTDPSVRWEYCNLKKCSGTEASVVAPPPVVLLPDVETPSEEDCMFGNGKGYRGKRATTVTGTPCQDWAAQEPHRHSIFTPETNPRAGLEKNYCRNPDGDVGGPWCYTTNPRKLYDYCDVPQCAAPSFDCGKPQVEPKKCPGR

CC1(C)C2CCC1(CS(=O)(=O)N[C@@H](Cc1cccc(C(=N)N)c1)C(=O)N1CCN(S(C)(=O)=O)CC1)C(=O)C2 (single isomer, unassigned) [Compound 7]
pKi [1]: 5.96
pKi [2, 21]: 7.92
pKi [2, 22]: 7.92
Concentr. to double the Thrombin time [3]: 0.075 µmol/L
concentration to double the TT [3]: less than 10^-7 mol/1
pKi ([4]; read-out: Ki, tPA, Table 1): 4.70
pKi [5]: 4.85
Concentr. to double the Prothrombin time [6]: 1.0 µmol/L
concentration to double the PT [6]: ≤ 1 μmol/1
pKi ([7]; read-out: Ki, Factor XIIa): 4.21
pKi [8, 23]: 4.60
pKi [9, 24]: < 3.00
Concentr. to double the aPTT [10]: 0.55 µmol/L
concentration to double the aPTT [10]: ≤ 1 μmol/1
pKi [11]: 6.66

CC1(C)C2CCC1(CS(=O)(=O)N[C@@H](Cc1cccc(C(=N)N)c1)C(=O)N1CCN(S(C)(=O)=O)CC1)C(=O)C2 (single isomer, unassigned) [Compound 8]
pKi [1]: 5.17
pKi [2, 21]: 7.51
pKi [2, 22]: 7.51
Concentr. to double the Thrombin time [3]: 0.13 µmol/L
pKi ([4]; read-out: Ki, tPA, Table 1): 4.09
pKi [5]: 4.54
Concentr. to double the Prothrombin time [6]: 2.0 µmol/L
pKi ([7]; read-out: Ki, Factor XIIa): 4.15
pKi [8, 23]: 3.89
pKi [9, 24]: < 3.00
Concentr. to double the aPTT [10]: 1.2 µmol/L
pKi [11]: 6.36

CC1CNc2c(cccc2S(=O)(=O)N[C@@H](CCCN=C(N)N)C(=O)N2CC[C@@H](C)C[C@@H]2C(=O)O)C1 (stereo partly drawn) [(2R,4R)-4-methyl-1-[Nα-(3-methyl-1,2,3,5-tetrahydro-8-quinolinesulfonyl)-L-arginine]-2-pipecoline-carboxylic acid]
trypsin-inhibiting activity in words [12]: practically no trypsin-inhibiting activity

Cl.Cl.N=C(N)c1cccc(C[C@H](NS(=O)(=O)c2ccc3ccccc3c2)C(=O)N2CCN(CCO)CC2)c1 [Compound 3, Nα-(2-naphthylsulfonyl)-3-amidino-(L)-phenylalanine-4-(2-hydroxyethyl) -piperazide dihydrochloride]
concentration at 5 min ([13]; plasma, iv, i.v. 1 mg/kg): 2210 ng/mL
concentration at 0.25 h ([13]; plasma, iv, i.v. 1 mg/kg): 145 ng/mL
concentration at 0.5 h ([13]; plasma, iv, i.v. 1 mg/kg): 313 ng/mL
concentration at 1 h ([13]; plasma, iv, i.v. 1 mg/kg): 112 ng/mL
elimination in words [13]: eliminated at comparable rate
Concentration in plasma ([13]; i.v. 1 mg/kg, 120 min): 0 ng/mL
Concentration in plasma ([13]; i.v. 1 mg/kg, 180 min): 0 ng/mL
resorption in words [14]: only slightly resorbed
concentration at 0.5 h ([15]; plasma, rectal 20 mg/kg): 7260 ng/mL
concentration at 1 h ([15]; plasma, rectal 20 mg/kg): 3800 ng/mL
concentration at 2 h ([15]; plasma, rectal 20 mg/kg): 1740 ng/mL
concentration at 3 h ([15]; plasma, rectal 20 mg/kg): 814 ng/mL
concentration at 4 h ([15]; plasma, rectal 20 mg/kg): 215 ng/mL
concentration at 5 h ([15]; plasma, rectal 20 mg/kg, 300 min): 61 ng/mL
concentration at 6 h ([15]; plasma, rectal 20 mg/kg, 360 min): 34 ng/mL
detectable in plasma after rectal administration ([15]; rectal): ≥ 6 h
concentration at 0.5 h [16, 25]: 3820 ng/mL
Concentration in plasma ([16]; in vivo, other, 100 mg/kg, 120 min): 361 ng/mL
Concentration in plasma ([16]; intraduodenal 100 mg/kg, 30 min, dihydrochloride, 100 mg/kg): 2262 ng/mL
Concentration in plasma ([16]; intraduodenal 100 mg/kg, 60 min, dihydrochloride, 100 mg/kg): 2172 ng/mL
Concentration in plasma ([16]; intraduodenal 100 mg/kg, 60 min, listed as 3*, dihydrochloride, 100 mg/kg): 795 ng/mL
Concentration in plasma ([16]; intraduodenal 100 mg/kg, 120 min): 1457 ng/mL
Concentration in plasma ([16]; intraduodenal 100 mg/kg, 180 min, dihydrochloride, 100 mg/kg): 945 ng/mL
Concentration in plasma ([16]; intraduodenal 100 mg/kg, 180 min, listed as 3*, dihydrochloride, 100 mg/kg): 228 ng/mL
Concentration in plasma ([16]; intraduodenal 100 mg/kg, 240 min, dihydrochloride, 100 mg/kg): 1277 ng/mL
Concentration in plasma ([16]; intraduodenal 100 mg/kg, 240 min, listed as 3*, dihydrochloride, 100 mg/kg): 144 ng/mL
Concentration in plasma ([16]; intraduodenal 100 mg/kg, 300 min, dihydrochloride, 100 mg/kg): 1400 ng/mL
Concentration in plasma ([16]; intraduodenal 100 mg/kg, 300 min, listed as 3*, dihydrochloride, 100 mg/kg): 276 ng/mL
Clotting time, Thrombin time ([17]; 0 min): 45 s
Clotting time, Thrombin time ([17]; 30 min): 300 s
Clotting time, Thrombin time ([17]; 60 min): 298 s
Clotting time, Thrombin time ([17]; 120 min): 165 s
Clotting time, Thrombin time ([17]; 180 min): 114 s
Clotting time, aPTT ([18]; 0 min): 23.5 s
Clotting time, aPTT ([18]; 30 min): 39.8 s
Clotting time, aPTT ([18]; 60 min): 32.8 s
Clotting time, aPTT ([18]; 120 min): 27.4 s
Clotting time, aPTT ([18]; 180 min): 26.0 s
concentration at 0.5 h [19]: 897 ng/mL
concentration at 1 h [19]: 462 ng/mL
concentration at 2 h [19]: 355 ng/mL
concentration at 3 h [19]: 49 ng/mL
Concentration in plasma [19]: 0 ng/mL
pKi [20]: 7.44
Concentr. to double the Thrombin time [3]: 0.14 µmol/L
pKi [4]: 3.72
Concentr. to double the Prothrombin time [6]: 1.3 µmol/L
pKi ([7]; Ki, Factor XIIa): 3.49
pKi [8]: 4.60
pKi [9]: < 3.00
Concentr. to double the aPTT [10]: 0.65 µmol/L
pKi [11]: 6.22

CN(C)C(=O)N1CCN(C(=O)[C@H](Cc2cccc(C(=N)N)c2)NS(=O)(=O)c2ccc3ccccc3c2)CC1 [Compound 6]
pKi [1]: 4.82
concentration at 5 min ([13]; plasma, iv, i.v. 1 mg/kg): 823 ng/mL
concentration at 0.25 h ([13]; plasma, iv, i.v. 1 mg/kg): 289 ng/mL
concentration at 0.5 h ([13]; plasma, iv, i.v. 1 mg/kg): 194 ng/mL
concentration at 1 h ([13]; plasma, iv, i.v. 1 mg/kg): 141 ng/mL
concentration at 2 h ([13]; plasma, iv, i.v. 1 mg/kg, 120 min): 86 ng/mL
concentration at 3 h ([13]; plasma, iv, i.v. 1 mg/kg, 180 min): 70 ng/mL
elimination in words [13]: eliminated at comparable rate
resorption in words [14]: only slightly resorbed
concentration at 0.5 h ([15]; plasma, rectal 20 mg/kg): 1180 ng/mL
concentration at 1 h ([15]; plasma, rectal 20 mg/kg): 449 ng/mL
concentration at 2 h ([15]; plasma, rectal 20 mg/kg): 850 ng/mL
concentration at 3 h ([15]; plasma, rectal 20 mg/kg): 272 ng/mL
concentration at 4 h ([15]; plasma, rectal 20 mg/kg): 46 ng/mL
concentration at 0.5 h [16, 25]: 20500 ng/mL
concentration at 1 h ([16]; plasma, intraduodenal 100 mg/kg, 60 min): 6500 ng/mL
concentration at 2 h ([16]; plasma, intraduodenal 100 mg/kg, 120 min): 3280 ng/mL
concentration at 3 h ([16]; plasma, intraduodenal 100 mg/kg, 180 min): 2060 ng/mL
concentration at 4 h ([16]; plasma, intraduodenal 100 mg/kg, 240 min): 1500 ng/mL
concentration at 5 h ([16]; plasma, intraduodenal 100 mg/kg, 300 min): 1200 ng/mL
concentration at 6 h ([16]; plasma, intraduodenal 100 mg/kg, 360 min): 1440 ng/mL
Clotting time, Thrombin time ([17]; 0 min): 55.3 s
Clotting time, Thrombin time ([17]; 30 min): > 300 s
Clotting time, Thrombin time ([17]; 60 min): > 300 s
Clotting time, Thrombin time ([17]; 120 min): > 300 s
Clotting time, Thrombin time ([17]; 180 min): 213 s
Clotting time, aPTT ([18]; 0 min): 22.3 s
Clotting time, aPTT ([18]; 30 min): 34.5 s
Clotting time, aPTT ([18]; 60 min): 31.5 s
Clotting time, aPTT ([18]; 120 min): 28.4 s
Clotting time, aPTT ([18]; 180 min): 26 s
concentration at 0.5 h [19]: 648 ng/mL
concentration at 1 h [19]: 362 ng/mL
concentration at 2 h [19]: 157 ng/mL
concentration at 3 h [19]: 83 ng/mL
Concentration in plasma [19]: 0 ng/mL
pKi [20]: 8.40
Concentr. to double the Thrombin time [3]: 0.042 µmol/L
concentration to double the TT [3]: less than 10^-7 mol/1
pKi [4]: < 3.00
Concentr. to double the Prothrombin time [6]: 0.65 µmol/L
concentration to double the PT [6]: ≤ 1 μmol/1
pKi ([7]; Ki, Factor XIIa): 4.29
pKi ([8]; Ki, Plasma kallikr., Table 1): 5.14
pKi [9]: < 3.00
Concentr. to double the aPTT [10]: 0.3 µmol/L
concentration to double the aPTT [10]: ≤ 1 μmol/1
pKi [11]: 7.01
